Laboratory results: patent publication US20250353891A1 (MEDIMMUNE LIMITED, priority 2022, published 2025)
pEC50: −log10 of the molar value. Several values for one entry are separate records, joined by “and”; a condition that tells them apart may be missing. Equal values may be shown once. Starred links: 1 amine or outer side, 2 acyl side, 3 side chain; linkers in the order of their positions; H or OH if unused. Non-standard residues stand in square brackets, D forms with d. Residues, ends and D or L forms follow the SMILES beside them. Groups on a side chain read outwards from the residue. *: point of attachment. C18 diacid = O=C(O)CCCCCCCCCCCCCCCCC(=O)*; γGlu = O=C(O)[C@H](CCC(=O)[*:2])N[*:1]; αMeF = C[C@](N)(Cc1ccccc1)C(=O)O; AEEA = NCCOCCOCC(=O)O; Aib = CC(C)(N)C(=O)O

Assays:
[1] = in vivo; conditions: male, cynomolgus monkey, 10 nmol/kg
Source text: (§1) Selected test peptides (n=8) were profiled for pharmacokinetic (PK) properties in the mouse after single intravenous (i.v.) or subcutaneous (s.c.) dose. A subset (n=4) meeting the acceptance criteria was subsequently profiled in the dog (single i.v. dose) and non-human primate (single i.v. and s.c. dose). […] Low-binding plasticware containers were used during preparation and sample handling to avoid non-specific binding.
Non-human primate: PK was studied in non-naïve male cynomolgus monkeys. After dosing, PK samples were collected from the femoral vein. Blood of each sample was transferred into plastic micro centrifuge tubes containing EDTA-K2, inverted several times for proper mixing of contents and then placed on wet ice. The blood samples were centrifuged under refrigerated (2° C. to 8° C.) conditions within 30 minutes following sample collection to obtain plasma and stored at −60° C. to −90° C.° C. prior to analysis.
(§2) Samples analysis: Samples were analyzed by LC-MS/MS. Calibration standards were injected at the beginning and end of each batch and the determined concentration for each prepared standard was used to construct a calibration curve. Plasma and dose aliquot sample concentrations were determined from the plasma calibration curve.
(§3) Data analysis: Plasma concentration data was analyzed by non-compartmental analysis (NCA) using Phoenix Winnonlin v. 8.3.3.33. Linear trapezoidal rule was used for increasing values and log trapezoidal rule was used for decreasing values, applying uniform weighting for lambda_z calculations. Subcutaneous bioavailability was calculated as the ratio AUC(s.c.)0-inf/AUC(i.v.)0-inf. Reported values (Table 18) represent the mean of the individual estimates.

[2] = test system: GLP-1R knockout (KO) mice; test: Glucose change in GLP-1R knockout mice; type: in vivo, mouse; conditions: GLP-1R KO mice, s.c., 120 min vs 0 min, somatostatin pretreatment (octreotide) 30 min prior to cpd
How it was run: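 GLP-1R knockout mice (n=4-8/group, sorted by body weight) were fasted 2 h, and in some studies pretreated with octreotide 10 mg/kg 30 min before peptide injection. Mice were reused up to 3 times with at least 1-week wash-out.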

[3] = Mouse acute food intake study; type: in vivo; conditions: male C57Bl/6 mice, s.c., cumulative food intake at 24 hr vs vehicle
How it was run: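 Single-housed male C57Bl/6 mice (8-9 weeks on arrival), chow-fed, acclimated and sham-dosed ≥2 times, were fasted 6-8 h, then given vehicle or peptide subcutaneously at 5 mL/kg 1-2 h before lights out. Food intake was recorded automatically over 48 h and analysed as cumulative intake.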

[4] = test system: wildtype (WT) mice; test: Glucose change in wildtype mice; type: in vivo, mouse; conditions: s.c., 120 min vs 0 min, somatostatin pretreatment (octreotide) 30 min prior to cpd
How it was run: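 Wildtype mice aged 8-14 weeks, fasted 2 h, sometimes pre-treated with octreotide 10 mg/kg 30 min before peptide injection. Blood glucose by glucometer at -30, 0, 30, 60, 120, 180, 240 and 360 min; n=4-8/group, mice reused up to 3 times with ≥1 week wash-out.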

[5] = in vivo; conditions: male, Beagle, dog, iv, 10 nmol/kg
Source text: as §1
Blood of each sample was transferred into plastic micro centrifuge tubes containing EDTA-K2, inverted several times for proper mixing of contents and then placed on wet ice.
as §2, §3

[6] = target: human glucagon receptor (hGCGR) (Homo sapiens, UniProt P47871); test: cAMP production (HTRF) in CHO cells expressing hGCGR; type: cell-based; set-up: expressed in transfected cells; conditions: Table 7, peptides modified at position 20; cAMP in CHO hGCGR cells; geometric mean; read-out: hGluc-R EC50
How it was run: (§4)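 Read-out: HTRF cAMP (anti-cAMP cryptate donor, cAMP-d2 acceptor in conjugate/lysis buffer), converted to % Delta F and fitted by 4-parameter logistic for EC50. Cell densities were 1×10^5 cells/mL (hGLP-1R) or 2×10^5 cells/mL (hGCGR). Stimulation lasted 30 min at room temperature.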

[7] = target: human GLP-1 receptor (hGLP-1R) (Homo sapiens, UniProt P43220); test: cAMP production (HTRF) in CHO cells expressing hGLP-1R; type: cell-based; set-up: expressed in transfected cells
How it was run: as §4

[8] = in vivo; conditions: male, C57BL/6, mouse, 10 nmol/kg
Source text: as §1
After dosing, PK samples were collected from the dorsal metatarsal vein. Blood of each sample was transferred into plastic micro centrifuge tubes containing EDTA-K2, inverted several times for proper mixing of contents and then placed on wet ice. The blood samples were centrifuged at 4° C. to obtain plasma and stored at −75° C. prior to analysis.
as §2, §3

[9] = test system: Pancreatin; test: Proteolytic resistance to FasSSIF/Pancreatin; type: in vitro ADME; conditions: FasSSIF/Pancreatin, 37° C., 0 min
How it was run: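 Peptide (1.0 mg) in pre-warmed FasSSIF, proteolysis started with fresh FasSSIF/USP Pancreatin and held at 37 °C. Aliquots at 0, 5, 10, 15, 30 min quenched in 10% TFA; remaining intact peptide estimated by RP-HPLC peak area, UV 210 nm.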

[10] = target: T1, porcine pancreatic pepsin (Sus scrofa, UniProt P00791); test: Proteolytic resistance to FasSSGF containing porcine pancreatic pepsin; type: in vitro ADME; conditions: FasSSGF with pepsin, 37° C., 0 min
T1 construct: purchased Sigma P7012
How it was run: (§5)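 Peptide (250 μM stock in FasSSGF) mixed 1:1 with porcine pepsin stock (0.5 mg/mL in FasSSGF) and held at 37° C; samples at 0, 5, 10, 15 and 30 min quenched in ammonium bicarbonate, pH 8. Intact peptide remaining estimated by RP-HPLC peak area, UV 210 nm.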

[11] = as above; type: in vitro ADME; conditions: pig, simulated gastric fluid, FasSSGF with pepsin, 37° C., read-out: % intact peptide over time (min)
How it was run: as §5

Chain of human GLP-1 receptor (hGLP-1R) (P43220 24-463): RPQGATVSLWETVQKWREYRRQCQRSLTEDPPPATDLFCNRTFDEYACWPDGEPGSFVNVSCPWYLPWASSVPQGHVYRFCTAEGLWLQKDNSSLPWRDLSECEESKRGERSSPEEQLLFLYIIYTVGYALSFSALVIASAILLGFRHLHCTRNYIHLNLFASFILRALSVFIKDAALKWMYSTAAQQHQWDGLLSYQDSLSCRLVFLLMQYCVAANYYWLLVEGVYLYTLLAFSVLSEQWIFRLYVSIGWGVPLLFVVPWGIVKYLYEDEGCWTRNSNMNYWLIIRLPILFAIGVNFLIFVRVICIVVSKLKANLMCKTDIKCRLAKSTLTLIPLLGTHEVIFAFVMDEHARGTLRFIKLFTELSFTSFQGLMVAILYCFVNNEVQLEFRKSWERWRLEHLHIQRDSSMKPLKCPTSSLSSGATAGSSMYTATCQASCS
T1 sequence (P00791 60-385): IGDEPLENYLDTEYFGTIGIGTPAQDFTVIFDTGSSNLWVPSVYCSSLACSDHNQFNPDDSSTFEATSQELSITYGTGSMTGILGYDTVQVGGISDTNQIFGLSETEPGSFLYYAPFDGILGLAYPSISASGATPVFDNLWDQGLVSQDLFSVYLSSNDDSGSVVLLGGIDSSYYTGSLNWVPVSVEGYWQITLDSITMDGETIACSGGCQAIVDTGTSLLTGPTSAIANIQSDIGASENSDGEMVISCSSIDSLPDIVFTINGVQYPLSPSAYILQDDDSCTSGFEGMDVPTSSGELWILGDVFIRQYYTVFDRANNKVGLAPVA
Chain of human glucagon receptor (hGCGR) (P47871 26-477): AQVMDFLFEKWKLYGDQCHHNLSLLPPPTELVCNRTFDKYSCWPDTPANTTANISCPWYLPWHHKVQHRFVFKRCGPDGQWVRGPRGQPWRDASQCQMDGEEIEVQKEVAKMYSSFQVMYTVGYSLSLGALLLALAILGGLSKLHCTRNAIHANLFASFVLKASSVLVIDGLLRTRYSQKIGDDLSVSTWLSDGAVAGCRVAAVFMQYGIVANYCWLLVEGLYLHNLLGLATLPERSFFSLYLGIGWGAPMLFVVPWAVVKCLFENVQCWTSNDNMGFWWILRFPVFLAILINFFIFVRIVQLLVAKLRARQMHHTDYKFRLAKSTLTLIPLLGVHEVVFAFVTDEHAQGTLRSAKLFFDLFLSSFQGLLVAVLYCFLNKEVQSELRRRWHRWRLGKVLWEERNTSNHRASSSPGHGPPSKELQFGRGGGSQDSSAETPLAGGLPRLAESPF

CC[C@H](C)[C@H](NC(=O)C(C)(C)NC(=O)[C@H](CCC(N)=O)NC(=O)[C@@H](NC(=O)[C@](C)(Cc1ccccc1)NC(=O)[C@H](CC(=O)O)NC(=O)[C@H](CCCCNC(=O)COCCOCCNC(=O)COCCOCCNC(=O)CC[C@H](NC(=O)CCCCCCCCCCCCCCCCC(=O)O)C(=O)O)NC(=O)[C@H](C)NC(=O)[C@H](C)NC(=O)[C@H](CCCNC(=N)N)NC(=O)[C@H](CO)NC(=O)[C@H](CC(=O)O)NC(=O)[C@H](CC(C)C)NC(=O)[C@](C)(Cc1ccccc1)NC(=O)[C@H](CCCCN)NC(=O)[C@H](CO)NC(=O)[C@@H](NC(=O)[C@H](CC(=O)O)NC(=O)[C@H](CO)NC(=O)[C@@H](NC(=O)[C@](C)(Cc1ccccc1)NC(=O)[C@H](CO)NC(=O)CNC(=O)[C@H](Cc1c[nH]cn1)NC(=O)C(C)(C)NC(=O)[C@@H](N)Cc1c[nH]cn1)[C@@H](C)O)C(C)C)C(C)C)C(=O)N[C@@H](C)C(=O)N[C@@H](CC(N)=O)C(=O)N[C@H](C(N)=O)[C@@H](C)O [Peptide 224, H-Aib-H-G-S-αMePhe-T-S-D-V—S-K-αMePhe-L-D-S-R-A-A-K (E-(O2Oc)-(O2Oc)-γE-C18diacid) 20-D-αMePhe-V-Q-Aib-I-A-N-T-amide] (H-H[Aib]HGS[αMeF]TSDVSK[αMeF]LDSRAAK([AEEA-AEEA-γGlu-C18 diacid])D[αMeF]VQ[Aib]IANT-NH2; N-terminus assumed)
bioavailability [1]: 95%
half-life ([1]; iv): 100 h
GLP-1R KO % glucose change 120 min ([2]; 3 nmol/kg): 100.3%
GLP-1R KO % glucose change 120 min ([2]; 10 nmol/kg): 132.3%
24 hr % Vehicle Food Intake ([3]; dose 1 nmol/kg): 91.3%
24 hr % Vehicle Food Intake ([3]; dose 3 nmol/kg): 76.6%
24 hr % Vehicle Food Intake ([3]; dose 10 nmol/kg): 66.5% and 72.5%
WT % glucose change 120 min ([4]; 3 nmol/kg): −46.3%
WT % glucose change 120 min ([4]; 10 nmol/kg): −40.0%
half-life [5]: 75 h
pEC50 [6]: 10.54
pEC50 ([7]; Table 7, peptides modified at position 20, cAMP in CHO hGLP-1R cells, geometric mean, read-out: hGLP-1R EC50): 10.49
% Relative Potency Ratio ([7]; Table 7, % GLP-1R activity relative to GLP-1 / % GlucR activity relative to glucagon): 1.8
bioavailability [8]: 109%
half-life ([8]; iv): 9.5 h

CC[C@H](C)[C@H](NC(=O)[C@H](Cc1ccccc1)NC(=O)[C@H](CCC(=O)O)NC(=O)[C@H](CCCCNC(=O)COCCOCCNC(=O)COCCOCCNC(=O)CC[C@H](NC(=O)CCCCCCCCCCCCCCCCC(=O)O)C(=O)O)NC(=O)[C@H](C)NC(=O)[C@H](C)NC(=O)[C@H](CCC(N)=O)NC(=O)CNC(=O)[C@H](CCC(=O)O)NC(=O)[C@H](CC(C)C)NC(=O)[C@H](Cc1ccc(O)cc1)NC(=O)[C@H](CO)NC(=O)[C@H](CO)NC(=O)[C@@H](NC(=O)[C@H](CC(=O)O)NC(=O)[C@H](CO)NC(=O)[C@@H](NC(=O)[C@H](Cc1ccccc1)NC(=O)[C@@H](NC(=O)CNC(=O)[C@H](CCC(=O)O)NC(=O)C(C)(C)NC(=O)[C@@H](N)Cc1cnc[nH]1)[C@@H](C)O)[C@@H](C)O)C(C)C)C(=O)N[C@@H](C)C(=O)N[C@@H](Cc1c[nH]c2ccccc12)C(=O)N[C@@H](CC(C)C)C(=O)N[C@H](C(=O)N[C@@H](CCCNC(=N)N)C(=O)NCC(=O)N[C@@H](CCCNC(=N)N)C(=O)NCC(=O)O)C(C)C [semaglutide, reference compound]
% intact peptide over time (min) [9]: 100%
% intact peptide over time (min) [10]: 100%
remaining at 5 min, 125 µM ([11]; 5 min): 15%
remaining at 10 min, 125 µM ([11]; 10 min): 13%
remaining at 0.25 h, 125 µM ([11]; 15 min): 12%
remaining at 0.5 h, 125 µM ([11]; 30 min): 14%
